What was measured:
[1] = molecular target: T1, Serine/threonine-protein kinase D1 (Homo sapiens) (UniProt Q15139); details: at 10 µM
T1 sequence (whole entry): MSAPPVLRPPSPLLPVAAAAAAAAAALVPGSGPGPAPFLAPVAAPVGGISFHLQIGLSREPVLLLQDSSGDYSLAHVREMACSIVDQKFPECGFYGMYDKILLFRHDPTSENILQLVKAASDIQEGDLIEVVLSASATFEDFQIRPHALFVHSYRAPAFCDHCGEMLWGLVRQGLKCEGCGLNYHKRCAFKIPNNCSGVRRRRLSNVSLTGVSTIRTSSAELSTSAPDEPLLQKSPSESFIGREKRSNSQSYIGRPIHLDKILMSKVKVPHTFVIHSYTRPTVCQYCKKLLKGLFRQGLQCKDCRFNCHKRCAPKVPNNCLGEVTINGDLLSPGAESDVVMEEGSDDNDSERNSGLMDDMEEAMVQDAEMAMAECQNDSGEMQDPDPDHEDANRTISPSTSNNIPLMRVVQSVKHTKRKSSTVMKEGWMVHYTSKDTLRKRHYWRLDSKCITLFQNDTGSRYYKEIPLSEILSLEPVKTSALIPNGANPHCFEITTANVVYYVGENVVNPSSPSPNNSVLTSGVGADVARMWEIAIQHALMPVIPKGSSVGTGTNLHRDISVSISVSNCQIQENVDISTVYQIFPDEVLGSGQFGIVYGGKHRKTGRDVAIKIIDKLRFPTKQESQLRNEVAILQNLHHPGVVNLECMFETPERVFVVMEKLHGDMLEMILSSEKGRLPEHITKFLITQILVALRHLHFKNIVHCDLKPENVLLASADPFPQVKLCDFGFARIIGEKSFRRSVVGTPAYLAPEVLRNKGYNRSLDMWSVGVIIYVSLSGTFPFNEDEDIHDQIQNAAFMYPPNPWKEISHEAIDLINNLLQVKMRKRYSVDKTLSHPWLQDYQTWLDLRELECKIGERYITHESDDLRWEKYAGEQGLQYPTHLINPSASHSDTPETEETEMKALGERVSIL

[2] = molecular target: T2, Membrane-associated tyrosine- and threonine-specific cdc2-inhibitory kinase (Homo sapiens) (UniProt Q99640); assay: Selectivity interaction (KinomeScan (DiscoverX)) EUB0000695a PKMYT1; details: at 100 nM
T2 sequence (whole entry): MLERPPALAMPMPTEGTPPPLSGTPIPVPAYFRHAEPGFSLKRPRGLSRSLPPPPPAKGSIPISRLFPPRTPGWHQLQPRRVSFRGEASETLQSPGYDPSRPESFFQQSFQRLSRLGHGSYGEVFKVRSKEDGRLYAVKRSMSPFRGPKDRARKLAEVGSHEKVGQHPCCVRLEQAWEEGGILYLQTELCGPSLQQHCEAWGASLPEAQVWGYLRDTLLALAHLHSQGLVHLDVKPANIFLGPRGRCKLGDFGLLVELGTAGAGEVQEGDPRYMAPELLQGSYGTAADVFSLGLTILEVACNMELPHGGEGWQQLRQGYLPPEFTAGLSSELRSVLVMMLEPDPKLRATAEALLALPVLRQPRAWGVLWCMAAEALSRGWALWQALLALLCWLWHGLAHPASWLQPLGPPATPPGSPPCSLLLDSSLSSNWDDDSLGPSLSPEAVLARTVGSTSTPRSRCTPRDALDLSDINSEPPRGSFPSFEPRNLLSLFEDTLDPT

[3] = molecular target: Casein kinase I isoform gamma-3 (Homo sapiens) (UniProt Q9Y6M4); assay: Selectivity interaction (KinomeScan (DiscoverX)) EUB0001049a CSNK1G3; details: at 1 µM
Chain of Casein kinase I isoform gamma-3 (Homo sapiens) (Q9Y6M4 whole entry, looked up, canonical isoform): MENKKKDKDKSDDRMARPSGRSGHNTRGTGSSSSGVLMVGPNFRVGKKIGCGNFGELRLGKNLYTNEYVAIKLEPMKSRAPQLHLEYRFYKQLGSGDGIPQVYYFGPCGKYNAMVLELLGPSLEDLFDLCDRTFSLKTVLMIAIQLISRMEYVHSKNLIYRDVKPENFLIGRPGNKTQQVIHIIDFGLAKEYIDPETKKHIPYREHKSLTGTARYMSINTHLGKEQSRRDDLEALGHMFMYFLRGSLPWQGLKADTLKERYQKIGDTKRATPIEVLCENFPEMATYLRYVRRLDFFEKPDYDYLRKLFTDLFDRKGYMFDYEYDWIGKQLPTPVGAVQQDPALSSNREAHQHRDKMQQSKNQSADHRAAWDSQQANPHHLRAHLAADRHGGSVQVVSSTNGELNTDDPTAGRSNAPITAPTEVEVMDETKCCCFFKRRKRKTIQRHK

[4] = molecular target: Myosin light chain kinase, smooth muscle (Homo sapiens, UniProt Q15746); assay: Selectivity interaction (KinomeScan (DiscoverX)) EUB0001049a MYLK; details: at 1 µM
Chain of Myosin light chain kinase, smooth muscle (Q15746 whole entry): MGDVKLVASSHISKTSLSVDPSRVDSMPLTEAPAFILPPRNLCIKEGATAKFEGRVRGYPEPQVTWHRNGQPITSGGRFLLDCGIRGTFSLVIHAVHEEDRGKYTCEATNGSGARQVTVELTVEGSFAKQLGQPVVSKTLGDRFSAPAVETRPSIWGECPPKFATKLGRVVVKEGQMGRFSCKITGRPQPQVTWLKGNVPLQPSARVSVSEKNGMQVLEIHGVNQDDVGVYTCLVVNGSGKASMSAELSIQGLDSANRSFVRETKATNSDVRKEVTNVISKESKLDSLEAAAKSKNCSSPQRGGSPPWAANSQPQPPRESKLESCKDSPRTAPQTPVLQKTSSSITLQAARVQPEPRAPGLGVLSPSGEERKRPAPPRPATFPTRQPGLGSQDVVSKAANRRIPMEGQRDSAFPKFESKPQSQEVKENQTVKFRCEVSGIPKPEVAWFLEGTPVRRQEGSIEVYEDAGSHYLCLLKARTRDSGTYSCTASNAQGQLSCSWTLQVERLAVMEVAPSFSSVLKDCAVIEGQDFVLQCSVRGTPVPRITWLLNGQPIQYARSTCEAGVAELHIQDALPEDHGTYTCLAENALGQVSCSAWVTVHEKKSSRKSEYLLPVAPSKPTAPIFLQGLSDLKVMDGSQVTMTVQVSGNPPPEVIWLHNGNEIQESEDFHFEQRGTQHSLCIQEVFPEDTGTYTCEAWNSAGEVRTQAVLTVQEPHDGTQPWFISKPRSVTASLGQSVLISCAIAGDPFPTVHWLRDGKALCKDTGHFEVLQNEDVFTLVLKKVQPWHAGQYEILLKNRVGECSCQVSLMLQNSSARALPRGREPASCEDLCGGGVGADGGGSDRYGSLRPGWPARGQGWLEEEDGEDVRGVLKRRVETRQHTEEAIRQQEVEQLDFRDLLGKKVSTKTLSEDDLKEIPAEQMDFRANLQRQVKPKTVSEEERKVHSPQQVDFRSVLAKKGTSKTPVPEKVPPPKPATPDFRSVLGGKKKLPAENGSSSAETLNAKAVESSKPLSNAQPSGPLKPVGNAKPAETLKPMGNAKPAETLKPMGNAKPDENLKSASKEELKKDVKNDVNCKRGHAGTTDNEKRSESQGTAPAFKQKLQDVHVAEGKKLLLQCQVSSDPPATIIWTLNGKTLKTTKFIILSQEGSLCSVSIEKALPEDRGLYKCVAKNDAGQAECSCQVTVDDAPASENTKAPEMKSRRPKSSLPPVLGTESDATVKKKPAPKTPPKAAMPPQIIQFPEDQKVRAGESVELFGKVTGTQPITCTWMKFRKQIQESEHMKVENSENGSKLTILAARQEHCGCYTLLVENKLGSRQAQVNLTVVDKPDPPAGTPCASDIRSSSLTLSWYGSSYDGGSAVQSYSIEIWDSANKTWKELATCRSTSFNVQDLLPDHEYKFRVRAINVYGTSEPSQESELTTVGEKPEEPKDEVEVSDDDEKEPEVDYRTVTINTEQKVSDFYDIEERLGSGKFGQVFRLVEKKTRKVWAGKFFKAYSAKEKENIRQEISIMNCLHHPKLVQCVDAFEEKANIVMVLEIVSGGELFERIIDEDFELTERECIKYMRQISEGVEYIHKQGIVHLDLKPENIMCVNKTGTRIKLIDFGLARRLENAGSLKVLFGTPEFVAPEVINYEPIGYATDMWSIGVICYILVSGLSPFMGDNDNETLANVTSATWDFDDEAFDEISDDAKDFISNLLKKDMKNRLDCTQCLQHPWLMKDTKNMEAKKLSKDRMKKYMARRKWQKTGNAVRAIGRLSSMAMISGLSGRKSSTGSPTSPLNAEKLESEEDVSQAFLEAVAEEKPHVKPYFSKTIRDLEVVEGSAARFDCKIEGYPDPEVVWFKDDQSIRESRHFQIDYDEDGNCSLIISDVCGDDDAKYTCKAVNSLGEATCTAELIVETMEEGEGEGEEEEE

[5] = molecular target: Serine/threonine-protein kinase 32A (Homo sapiens) (UniProt Q8WU08); assay: Selectivity interaction (KinomeScan (DiscoverX)) EUB0000655a STK32A; details: at 10 µM
Chain of Serine/threonine-protein kinase 32A (Homo sapiens) (Q8WU08 whole entry): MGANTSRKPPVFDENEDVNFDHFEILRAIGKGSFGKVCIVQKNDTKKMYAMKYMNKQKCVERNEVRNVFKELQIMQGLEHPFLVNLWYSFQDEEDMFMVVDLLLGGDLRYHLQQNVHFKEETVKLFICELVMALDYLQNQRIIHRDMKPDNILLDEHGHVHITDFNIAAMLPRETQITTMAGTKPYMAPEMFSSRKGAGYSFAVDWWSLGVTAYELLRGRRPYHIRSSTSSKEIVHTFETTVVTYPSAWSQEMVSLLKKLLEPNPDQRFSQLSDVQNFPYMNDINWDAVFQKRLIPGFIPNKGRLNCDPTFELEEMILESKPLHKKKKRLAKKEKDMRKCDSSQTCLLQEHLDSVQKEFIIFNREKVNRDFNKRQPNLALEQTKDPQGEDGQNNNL

[6] = molecular target: G protein-coupled receptor kinase 4 (Homo sapiens) (UniProt P32298); assay: Selectivity interaction (KinomeScan (DiscoverX)) EUB0001079a GRK4; details: at 1 µM
Chain of G protein-coupled receptor kinase 4 (Homo sapiens) (P32298 whole entry, looked up): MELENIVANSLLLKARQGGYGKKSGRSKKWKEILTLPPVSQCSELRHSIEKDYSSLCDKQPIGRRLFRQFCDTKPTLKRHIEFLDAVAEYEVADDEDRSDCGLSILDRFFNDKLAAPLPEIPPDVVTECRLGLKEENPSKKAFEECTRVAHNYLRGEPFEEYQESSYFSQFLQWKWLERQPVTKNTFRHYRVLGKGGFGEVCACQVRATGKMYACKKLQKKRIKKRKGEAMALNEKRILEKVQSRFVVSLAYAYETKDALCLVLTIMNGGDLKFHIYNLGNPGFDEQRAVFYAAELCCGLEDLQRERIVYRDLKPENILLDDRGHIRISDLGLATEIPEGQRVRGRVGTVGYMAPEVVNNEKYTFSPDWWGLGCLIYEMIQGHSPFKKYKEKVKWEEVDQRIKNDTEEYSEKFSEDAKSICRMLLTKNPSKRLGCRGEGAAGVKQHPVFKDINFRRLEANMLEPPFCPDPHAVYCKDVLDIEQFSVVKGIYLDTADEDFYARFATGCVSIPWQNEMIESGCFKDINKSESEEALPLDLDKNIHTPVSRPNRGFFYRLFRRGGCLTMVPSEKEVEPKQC

[7] = molecular target: T3, Serine/threonine-protein kinase LATS2 (Homo sapiens) (UniProt Q9NRM7); assay: Selectivity interaction (KinomeScan (DiscoverX)) EUB0001079a LATS2; details: at 1 µM
T3 sequence (whole entry): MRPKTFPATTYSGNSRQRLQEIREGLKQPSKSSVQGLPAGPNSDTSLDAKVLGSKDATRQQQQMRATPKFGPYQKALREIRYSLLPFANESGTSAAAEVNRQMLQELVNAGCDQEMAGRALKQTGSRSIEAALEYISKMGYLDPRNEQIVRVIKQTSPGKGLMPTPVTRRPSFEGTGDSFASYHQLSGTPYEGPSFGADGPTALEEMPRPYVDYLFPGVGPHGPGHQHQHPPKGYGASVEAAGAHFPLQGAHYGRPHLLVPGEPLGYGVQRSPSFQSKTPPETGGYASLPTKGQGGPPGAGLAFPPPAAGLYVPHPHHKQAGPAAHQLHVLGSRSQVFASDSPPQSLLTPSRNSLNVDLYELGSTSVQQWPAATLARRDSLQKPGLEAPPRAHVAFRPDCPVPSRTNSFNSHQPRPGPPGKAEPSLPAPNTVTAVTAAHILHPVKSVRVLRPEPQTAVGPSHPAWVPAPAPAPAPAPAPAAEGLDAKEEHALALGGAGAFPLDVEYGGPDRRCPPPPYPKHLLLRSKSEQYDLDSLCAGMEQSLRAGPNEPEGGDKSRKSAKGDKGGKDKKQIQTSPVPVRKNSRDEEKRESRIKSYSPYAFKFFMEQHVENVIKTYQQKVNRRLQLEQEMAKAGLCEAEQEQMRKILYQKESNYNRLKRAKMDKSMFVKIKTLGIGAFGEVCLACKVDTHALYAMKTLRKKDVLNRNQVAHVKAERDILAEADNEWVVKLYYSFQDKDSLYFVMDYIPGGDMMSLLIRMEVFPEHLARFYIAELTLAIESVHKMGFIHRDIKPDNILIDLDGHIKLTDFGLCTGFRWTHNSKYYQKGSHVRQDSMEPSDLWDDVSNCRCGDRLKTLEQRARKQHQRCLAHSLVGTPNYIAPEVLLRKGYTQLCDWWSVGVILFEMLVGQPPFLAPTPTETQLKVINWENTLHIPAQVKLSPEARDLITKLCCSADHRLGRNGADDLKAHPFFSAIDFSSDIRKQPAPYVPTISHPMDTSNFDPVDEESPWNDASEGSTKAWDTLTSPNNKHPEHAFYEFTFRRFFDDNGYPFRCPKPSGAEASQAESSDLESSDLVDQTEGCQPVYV

[8] = molecular target: Leukocyte tyrosine kinase receptor (Homo sapiens, UniProt P29376); assay: Selectivity interaction (KinomeScan (DiscoverX)) EUB0001079a LTK; details: at 1 µM
Chain of Leukocyte tyrosine kinase receptor (P29376 whole entry): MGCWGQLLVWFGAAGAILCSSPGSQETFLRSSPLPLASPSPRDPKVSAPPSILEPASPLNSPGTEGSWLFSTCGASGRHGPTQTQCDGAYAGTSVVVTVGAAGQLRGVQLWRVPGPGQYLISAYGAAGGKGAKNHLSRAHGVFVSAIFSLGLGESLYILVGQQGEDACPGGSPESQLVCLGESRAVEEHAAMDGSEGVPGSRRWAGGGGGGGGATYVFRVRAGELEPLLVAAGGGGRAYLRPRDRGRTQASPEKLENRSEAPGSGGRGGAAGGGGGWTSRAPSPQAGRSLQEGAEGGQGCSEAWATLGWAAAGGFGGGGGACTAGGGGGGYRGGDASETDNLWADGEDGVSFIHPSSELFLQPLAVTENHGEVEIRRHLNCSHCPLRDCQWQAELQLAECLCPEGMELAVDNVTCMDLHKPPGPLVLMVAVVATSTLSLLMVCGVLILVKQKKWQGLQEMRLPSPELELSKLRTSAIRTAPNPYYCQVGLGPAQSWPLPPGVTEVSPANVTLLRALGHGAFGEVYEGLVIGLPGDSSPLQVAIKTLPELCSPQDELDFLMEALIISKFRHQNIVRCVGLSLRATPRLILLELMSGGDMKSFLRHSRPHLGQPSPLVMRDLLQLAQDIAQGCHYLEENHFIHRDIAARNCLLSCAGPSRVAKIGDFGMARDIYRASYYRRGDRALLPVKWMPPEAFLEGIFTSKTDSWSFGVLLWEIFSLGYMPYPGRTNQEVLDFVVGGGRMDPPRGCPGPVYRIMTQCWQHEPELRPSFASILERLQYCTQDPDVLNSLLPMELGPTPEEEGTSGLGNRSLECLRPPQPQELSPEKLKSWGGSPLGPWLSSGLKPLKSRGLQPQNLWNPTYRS

Focal adhesion kinase 1 = Focal adhesion kinase 1 (Homo sapiens, UniProt Q05397); assay: Selectivity interaction (KinomeScan (DiscoverX)) EUB0000092b PTK2; details: at 10 µM

In the case of `CCN(CC)CCCCNc1ncc2cc(-c3cc(OC)cc(OC)c3)c(NC(=O)NC(C)(C)C)nc2n1`, the % of control [1] is reported as 100%.

`Cc1cc(F)c(C(=O)Nc2cccc(-c3nncn3C(C)C)n2)cc1-n1cnc(C2CC2)c1` was tested, and the % of control [2] was 98%.

Work on `COc1cc(Nc2nc(C)cc(-c3cnn4nc(OC)ccc34)n2)cc(C(F)(F)F)c1` yielded a % of control [3] of 98% and a % of control [4] of 58%.

Work on `CN(C)CCOc1ccc(-c2nc(-c3ccncc3)c(-c3ccc4c(c3)CC/C4=N\O)[nH]2)cc1` yielded a % of control [5] of 85%.

`Nc1cnc(N2CCc3cc(S(=O)(=O)Nc4c(F)cc(Cl)cc4F)cc(N4CCCC4=O)c32)nc1` [TP-020n] was tested, and the % of control [6] was 100%, the % of control [7] was 100% and the % of control [8] was 100%.

`CCC(=O)N1CCN(c2ccc(-n3c(=O)ccc4cnc5ccc(-c6cnc7ccccc7c6)cc5c43)cc2C(F)(F)F)CC1` was tested, and the % of control (Focal adhesion kinase 1) was 14%.

Reference: ChEMBL document CHEMBL5465560, “Selectivity Literature for EUbOPEN Chemogenomic Library” (2024)
